The values that follow come from patent US12522594B2, “2-heteroaryl-3-oxo-2,3-dihydropyridazine-4-carboxamides for the treatment of cancer” (Deutsches Krebsforschungszentrum, priority 2017, dated 2026).

What all share (type): cell-based
In assay [1] the target is T1, AHR (Homo sapiens, UniProt P35869).
T1 sequence (P35869 11-848): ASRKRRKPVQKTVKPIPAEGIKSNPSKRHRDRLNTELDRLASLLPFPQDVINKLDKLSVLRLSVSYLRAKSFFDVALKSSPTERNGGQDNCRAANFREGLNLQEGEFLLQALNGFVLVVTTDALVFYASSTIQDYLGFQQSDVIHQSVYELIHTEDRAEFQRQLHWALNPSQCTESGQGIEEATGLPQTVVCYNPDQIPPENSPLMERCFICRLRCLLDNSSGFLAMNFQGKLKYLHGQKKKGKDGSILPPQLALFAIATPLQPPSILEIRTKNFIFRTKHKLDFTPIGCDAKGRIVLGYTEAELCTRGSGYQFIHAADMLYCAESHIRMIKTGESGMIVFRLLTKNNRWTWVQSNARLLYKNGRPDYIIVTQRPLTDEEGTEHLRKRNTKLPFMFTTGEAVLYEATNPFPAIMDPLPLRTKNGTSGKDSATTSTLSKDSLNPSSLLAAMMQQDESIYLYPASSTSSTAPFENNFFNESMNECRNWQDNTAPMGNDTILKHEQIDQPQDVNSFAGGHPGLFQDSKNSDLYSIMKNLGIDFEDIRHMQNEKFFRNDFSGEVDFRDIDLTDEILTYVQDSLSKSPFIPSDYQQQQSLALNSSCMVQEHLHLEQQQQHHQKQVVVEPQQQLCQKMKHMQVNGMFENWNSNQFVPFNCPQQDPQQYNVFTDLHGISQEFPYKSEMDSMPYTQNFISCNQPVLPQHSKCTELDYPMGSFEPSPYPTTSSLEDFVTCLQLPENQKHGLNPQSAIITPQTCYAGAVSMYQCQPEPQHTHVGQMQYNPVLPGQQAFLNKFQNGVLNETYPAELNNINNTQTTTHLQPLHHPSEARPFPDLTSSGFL
The assay can be described thus: In vitro assay 3: AHR-regulated CYP1A1 expression in human cell line (U937, qPCR, KA stimulation). The settings on record: U937 cells, 200 uM KA, 6 hours, CYP1A1 expression by qPCR; read-out: Assay 3: Hum CYP1A1 Antagonism IC50. An outline of the steps:
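U937 human monocytic cells were stimulated with 200 uM KA for 6 h, with or without compound at eight concentrations from 1 nM to 3 uM, in duplicate. CYP1A1 mRNA was quantified by Taqman qPCR as fold expression normalised to HPRT. Unstimulated cells served as negative control.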
(In general: Quantitative PCR measures a nucleic acid by following its amplification.)

Another assay relates to human monocytes. The assay can be described thus: In vitro assay 4: rescue of TNFα production from human primary monocytes (LPS + KA). The settings on record: one value per donor; for Individual Donors Conc of highest rescue: concentration (of 1, 0.3, 0.1 uM tested) at which highest TNFα rescue was observed; for Individual Donors % rescue TNFα normalised to ref cmpd: human monocytes, 10 ng/mL LPS + 200 uM KA, 18 hours, highest percent rescue relative to highest rescue with GNF-351. The protocol:
In Vitro Assay 4: Rescue of TNFα Production from Human Primary Monocytes
The ability of the substances to enhance immune cell activity was determined. The substances were tested for their capacity to reverse KA-induced inhibition of TNFα production by LPS-stimulated human monocytes. Human monocytes were purified by negative selection from donor PBMCs using Miltenyi beads and seeded at 2×10^5 cells/well in complete growth medium (RPMI 1640, 10% FCS). Monocytes were incubated with 10 ng/mL LPS (O127:B8, #L4516, Sigma) and 200 uM KA (#3375, Sigma) and substances were added at concentrations of 1 uM, 0.3 uM and 0.1 uM and cultured for 18 hours. LPS alone served as the positive control. TNFα production in the supernatant was measured by Meso Scale Discovery immunoassay and the ability of the substances to rescue TNFα production was calculated as a percentage of LPS stimulation and KA-induced inhibition and normalized to the donor-specific response with the reference AHR antagonist compound GNF-351 (Smith et al., J Pharmacol Exp Ther, 2011, 338(1):318-27).

Assay [2] concerns the target T1, AHR. Nature of the assay: In vitro assay 1: antagonism in human cell line (transactivation assay, U87 cells prestimulated with kynurenic acid, DRE firefly luciferase reporter). More on the design: host or cells: U87 glioblastoma cells, stably transfected with DRE firefly luciferase and renilla reporter constructs. The note with it: 150 uM kynurenic acid, 20 hours, read-out: Assay 1: AHR-luc Hum Antagonism IC50. An outline of the steps:
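U87 glioblastoma cells with endogenous AHR, stably carrying a DRE-driven firefly luciferase reporter and a constitutive renilla reporter. Cells prestimulated with the AHR agonist kynurenic acid before compound addition; data normalized to positive and negative controls.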
Background: A reporter such as luciferase makes a cellular process visible.

The target in assay [3] is T1, AHR. Nature of the assay: In vitro assay 2: agonism in human cell line (transactivation assay, U87 cells, DRE firefly luciferase reporter). More on the design: host or cells: U87 glioblastoma cells, stably transfected with DRE firefly luciferase and renilla reporter constructs. The settings on record: no kynurenic acid, 20 hours, read-out: Assay 2: AHR-luc Hum Agonism IC50. An outline of the steps:
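U87 glioblastoma cells with endogenous AHR, stably carrying DRE-driven firefly luciferase and constitutive renilla reporters. 300 uM kynurenic acid served as positive activation control; data normalized to positive and negative controls.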

“And” between values parts separate entries of the source, which are not always exact repeats. Identical values can stand only once. Bounds are passed on as bounds.

For orientation: IC50 means the concentration that inhibits the measured activity by half. Turning to `O=C(N[C@@H]1CCC[C@@H]1O)c1cc(-c2ccc(Cl)cc2)nn(-c2cccnc2)c1=O` [Example 138, 6-(4-Chlorophenyl)-N-[(1R,2S)-2-hydroxycyclopentyl]-3-oxo-2-(pyridin-3-yl)-2,3-dihydropyridazine-4-carboxamide], the IC50 at AHR [1] is 7.61 nM; on AHR [2], 9.04 nM; on AHR [3], > 20000 nM. The “Individual Donors Conc of highest rescue” value in the assay on human monocytes is 0.1 µM and 0.3 µM. In the assay on human monocytes, the “Individual Donors % rescue TNFα normalised to ref cmpd” value is 49% and 84%.

As to `O=C(N[C@H]1CCC[C@H]1O)c1cc(-c2ccc(OC(F)(F)F)cc2)nn(-c2cccnc2)c1=O` [Example 147, N-[(1S,2R)-2-Hydroxycyclopentyl]-3-oxo-2-(pyridin-3-yl)-6-[4-(trifluoromethoxy)phenyl]-2,3-dihydropyridazine-4-carboxamide], the IC50 on AHR [1] is 11.1 nM; on AHR [2], 12.2 nM; on AHR [3] it was > 20000 nM. Further, the “Individual Donors Conc of highest rescue” value in the assay with human monocytes is 0.1 µM and 0.3 µM. Further, in the assay with human monocytes, the “Individual Donors % rescue TNFα normalised to ref cmpd” value is 50% and 89%.

As to `O=C(NCC(O)C(F)F)c1cc(-c2ccc(Cl)cc2)nn(-c2cccnc2)c1=O` (racemic) [Example 79, 6-(4-Chlorophenyl)-N-[(2RS)-3,3-difluoro-2-hydroxypropyl]-3-oxo-2-(pyridin-3-yl)-2,3-dihydropyridazine-4-carboxamide], the IC50 on AHR [1] is 80.4 nM; on AHR [2], 39.5 nM; on AHR [3], > 20000 nM. Further, the “Individual Donors Conc of highest rescue” value with human monocytes is 0.3 µM and 0.1 µM. In addition, the “Individual Donors % rescue TNFα normalised to ref cmpd” value in the assay on human monocytes was 76% and 63%.

`COCC(O)CNC(=O)c1cc(-c2ccc(Cl)cc2)nn(-c2cnn(C)c2)c1=O` (single isomer, unassigned; (-)) [Example 25, (−)-6-(4-Chlorophenyl)-11-(2-hydroxy-3-methoxypropyl)-2-(1-methyl-1H-pyrazol-4-yl)-3-oxo-2,3-dihydropyridazine-4-carboxamide]: the results for the IC50 on AHR [1], at AHR [2] and at AHR [3] were 91.1 nM, 68.2 nM and > 20000 nM, respectively. In the assay with human monocytes, the “Individual Donors Conc of highest rescue” value is 1 µM. Moreover, the “Individual Donors % rescue TNFα normalised to ref cmpd” value in the assay with human monocytes was 46% and 53%.

On to `Cn1cc(-n2nc(-c3ccc(Cl)cc3)cc(C(=O)NCC(O)C(F)(F)F)c2=O)cn1` (stereo not shown) [Example 18, 6-(4-Chlorophenyl)-2-(1-methyl-1H-pyrazol-4-yl)-3-oxo-N-(3,3,3-trifluoro-2-hydroxypropyl)-2,3-dihydropyridazine-4-carboxamide], for which the values for the IC50 at AHR [1], at AHR [2] and on AHR [3] were 11.3 nM, 14.2 nM and > 20000 nM, respectively. Moreover, the “Individual Donors Conc of highest rescue” value in the assay on human monocytes was 1 μM (2×) and 0.3 μM (2×). In the assay on human monocytes, the “Individual Donors % rescue TNFα normalised to ref cmpd” value is 83% and 73% and 76% and 105%.

For the compound `Cc1ccc(-c2cc(C(=O)N[C@@H](C)CO)c(=O)n(-c3cnn(C)c3)n2)cc1` [Example 8, N-[(2S)-1-Hydroxypropan-2-yl]-6-(4-methylphenyl)-2-(1-methyl-1H-pyrazol-4-yl)-3-oxo-2,3-dihydropyridazine-4-carboxamide], the half-inhibitory concentration (IC50) is 15.8 nM at AHR [1], 19 nM on AHR [2] and > 20000 nM at AHR [3]. Moreover, the “Individual Donors Conc of highest rescue” value in the assay with human monocytes is 1 μM (4×) and 0.1 μM. For the same compound, in the assay with human monocytes, the “Individual Donors % rescue TNFα normalised to ref cmpd” value is 99% and 55% and 104% and 109% and 36%.

`Cn1cc(-n2nc(-c3ccc(Cl)cc3)cc(C(=O)NCC(O)C(F)F)c2=O)cn1` (stereo not shown) [Example 21, 6-(4-Chlorophenyl)-N-(3,3-difluoro-2-hydroxypropyl)-2-(1-methyl-1H-pyrazol-4-yl)-3-oxo-2,3-dihydropyridazine-4-carboxamide]: the IC50 at AHR [1] is 18.2 nM; on AHR [2], 28 nM; on AHR [3] it was > 20000 nM. Moreover, in the assay with human monocytes, the “Individual Donors Conc of highest rescue” value was 0.3 µM and 1 µM. Also, the “Individual Donors % rescue TNFα normalised to ref cmpd” value with human monocytes is 87% and 77%.

Take `COCC(O)CNC(=O)c1cc(-c2ccc(Cl)cc2)nn(-c2cnn(C)c2)c1=O` (stereo not shown) [Example 24, 6-(4-Chlorophenyl)-N-(2-hydroxy-3-methoxypropyl)-2-(1-methyl-1H-pyrazol-4-yl)-3-oxo-2,3-dihydropyridazine-4-carboxamide]: in the assay with human monocytes, the “Individual Donors Conc of highest rescue” value is 0.3 µM and 1 µM; the “Individual Donors % rescue TNFα normalised to ref cmpd” value is 84% and 59%. On AHR [2], the IC50 is 87.5 nM. Besides, the IC50 on AHR [3] is > 20000 nM.

As for `O=C(NC(CO)C(F)(F)F)c1cc(-c2ccc(C(F)(F)F)cc2)nn(-c2cccnc2)c1=O` (racemic) [Example 110, 3-Oxo-2-(pyridin-3-yl)-N-[(2RS)-1,1,1-trifluoro-3-hydroxypropan-2-yl]-6-[4-(trifluoromethyl)phenyl]-2,3-dihydropyridazine-4-carboxamide], the “Individual Donors Conc of highest rescue” value in the assay with human monocytes was 0.1 µM and 0.3 µM. Moreover, the “Individual Donors % rescue TNFα normalised to ref cmpd” value in the assay on human monocytes was 85% and 42%. Also, the values for the IC50 on AHR [2] and at AHR [3] were 3.31 nM and > 20000 nM, respectively.

On to `O=C(NCC(O)C(F)F)c1cc(-c2ccc(Cl)cc2)nn(-c2cccnc2)c1=O` (single isomer, unassigned; (+)) [Example 88, (+)-6-(4-Chlorophenyl)-N-(3,3-difluoro-2-hydroxypropyl)-3-oxo-2-(pyridin-3-yl)-2,3-dihydropyridazine-4-carboxamide], for which, in the assay on human monocytes, the “Individual Donors Conc of highest rescue” value worked out at 1 µM; the “Individual Donors % rescue TNFα normalised to ref cmpd” value is 69% and 35%. Besides, the half-inhibitory concentration (IC50) on AHR [2] stood at 78 nM. Also, the IC50 at AHR [3] is > 20000 nM.

With `Cn1cc(-n2nc(-c3ccc(Cl)cc3)cc(C(=O)NC[C@H](O)CO)c2=O)cn1` [Example 27, 6-(4-Chlorophenyl)-N-[(2S)-2,3-dihydroxypropyl]-2-(1-methyl-1H-pyrazol-4-yl)-3-oxo-2,3-dihydropyridazine-4-carboxamide], in the assay with human monocytes, the “Individual Donors Conc of highest rescue” value is 1 µM and 0.3 µM; the “Individual Donors % rescue TNFα normalised to ref cmpd” value is 87% and 105%. The IC50 on AHR [2] is 177 nM. In addition, at AHR [3], the IC50 was > 20000 nM.

For `Cn1cc(-n2nc(-c3ccc(Cl)cc3)cc(C(=O)NCC(O)C(F)F)c2=O)cn1` (single isomer, unassigned; (+)) [Example 23, (+)-6-(4-Chlorophenyl)-N-(3,3-difluoro-2-hydroxypropyl)-2-(1-methyl-1H-pyrazol-4-yl)-3-oxo-2,3-dihydropyridazine-4-carboxamide], in the assay with human monocytes, the “Individual Donors Conc of highest rescue” value worked out at 1 µM. The “Individual Donors % rescue TNFα normalised to ref cmpd” value with human monocytes is 274% and 81%. The IC50 on AHR [2] was 45.7 nM; at AHR [3] it was > 20000 nM.
